From patent US11992478B2, “Methods of using androgen receptor inhibitors as cancer therapeutics” (THE TRUSTEES OF THE UNIVERSITY OF PENNSYLVANIA, priority 2020, dated 2024)

Experiments:
[1] = test system: p-ERK (MAPK activation); assay: ERK phosphorylation / MAPK activation (Western blot); assay type: cell-based, human
[2] = test system: human melanoma cells (WM46); assay: Cell proliferation of human melanoma cells (WM46); assay type: cell-based; conditions: for proliferation following addition of cations: WM46, over 6-days (FIG. 4D)
[3] = test system: mouse melanoma cells (YUMM1.7); assay: Cell proliferation of mouse melanoma cells (YUMM1.7); assay type: cell-based
[4] = test system: ZIP9; conditions: competitive binding assays; cited from earlier work
[5] = test system: human WM46 melanoma; assay: WM46 melanoma tumor growth in SCID mice; assay type: in vivo; conditions: for effect on tumors with engineered ZIP9 loss: either male or female mice
From the text: The tumor-promoting effects of testosterone on early prostate cancer are known, and inhibition of testosterone signaling is a first-line treatment. […] Here it is shown that targeting nonclassical testosterone signaling through ZIP9 is therapeutically useful for cancer (FIG. 13).

[6] = test system: melanoma cells; assay: Testosterone-induced hyperproliferation in melanoma cells (FIG. 10A); assay type: cell-based; conditions: 2 μM Bicalutamide (FIG. 10A)
[7] = test system: cell lines derived from diverse human and murine tumor types; assay: Testosterone-induced hyperproliferation in a panel of tumor cell lines (FIG. 11); assay type: cell-based
[8] = test system: primary human melanocytes; assay: Cell proliferation of primary human melanocytes; assay type: cell-based; conditions: androgen treatment (FIG. 3A)
[9] = test system: human WM46 melanoma cells; assay: Cytosolic zinc influx with Fluo-Zin3 reporter; assay type: cell-based
[10] = test system: human PDAC; assay: Cell proliferation of human PDAC cells; assay type: cell-based; conditions: human PDAC (FIG. 9C)
[11] = test system: murine PDAC; assay: Cell proliferation of murine PDAC cells; assay type: cell-based, mouse
[12] = test system: WM46 human melanoma cells; assay: Reverse Phase Protein Array of testosterone-treated melanoma cells; assay type: cell-based; conditions: RPPA, testosterone 0, 30, 60 minutes and 8 hours
From the text: (§1) (For clarity, this figure highlights only a subset of proteins from the entire data set of 450 proteins at 4 time points). […] FIG. 12B is a Western blot showing that testosterone promotes YAP nuclear translocation in WM46 cells. […] is used as control for the cytosolic fraction; PARP is used as a control for the nuclear fraction.
Testosterone induces a rapid, ZIP9 dependent, increase in free cytosolic zinc that is required for the hyperproliferation. Zinc is required for myriad cellular enzymes and associated biologic process making it difficult to hypothesize a priori, what signaling mechanism(s) downstream of ZIP9 mediate the testosterone induced hyperproliferation. A 450 element Reverse Phase Protein Array analysis of human melanoma cells treated with testosterone for 0, 30 minutes, 60 minutes and 8 hours (FIG. 12A) was performed.

[13] = test system: YAP; assay: YAP nuclear translocation (Western blot of fractions); assay type: cell-based, human; conditions: WM46, testosterone exposure (FIG. 12B)
From the text: as §1
When activated, YAP and the related transcription factor TAZ are dephosphorylated and move from the cytosol to the nucleus. […] YAP is a substrate for 14-3-3ε, which sequesters YAP in the cytosol. As 14-3-3ε, was one of the proteins most depleted by testosterone, it is believed, without being bound by theory, that 14-3-3ε loss promotes YAP translocation to the nucleus where it then induces expression of tumor-promoting genes. It is likely that the MAK/ERK changes also contribute to testosterone induced YAP activation, as MEK and ERK1/2 are also major positive YAP regulators.

[14] = male SCID mice, 20 mg/kg/day systemic daily (FIG. 13C)

In the case of c1ccc(CN(CCN(Cc2ccccn2)Cc2ccccn2)Cc2ccccn2)nc1 [TPEN, N,N,N′,N′-tetrakis (2-pyridinylmethyl)-1,2-ethanediamine], the “effect on testosterone p-ERK induction” value ([1]; with testosterone (FIG. 10B)) is reported as “completely blocked”, the “effect on proliferation on its own” value ([2]; WM46, without testosterone (FIG. 4C)) is reported as “no significant effect” and the “effect on testosterone induced proliferation” value ([2]; WM46, zinc chelator plus testosterone, 6 days (FIG. 4C)) is reported as “completely blocked”. The “effect on testosterone stimulated proliferation” value ([3]; YUMM, zinc chelator plus testosterone (FIG. 7B)) was “blocked”.

In the case of C[C@]12CCC(=O)C=C1CC[C@@H]1[C@@H]2CC[C@]2(C)C(=O)CC[C@@H]12 [androstenedione], the “ZIP9 binding specificity / affinity” value [4] is given as “relatively low affinity”.

With CNC(=O)c1ccc(N2C(=S)N(c3cnc(C#N)c(C(F)(F)F)c3)C(=O)C23CCC3)cc1F [apalutamide] the “effect on tumors with engineered ZIP9 loss” value [5] was “no significant effect”, the melanoma growth ([5]; female mice, systemic delivery) was “no effect” and the survival [5, 14] was “extend survival”. The tumor growth [5, 14] was “inhibits tumor growth”, the “effect on testosterone driven increased proliferation” value ([2]; WM46 (FIG. 10E)) was “inhibit testosterone driven increased proliferation” and the “effect on testosterone dependent-increased proliferation” value ([2]; WM46, treated with 204 Apalutamide (so in the source)) was “reverted”.

With CC(O)(CS(=O)(=O)c1ccc(F)cc1)C(=O)Nc1ccc(C#N)c(C(F)(F)F)c1 (stereo not shown) [bicalutamide] the “effect on tumors with engineered ZIP9 loss” value [5] was “no significant effect”, the tumor growth ([5]; female mice, 30 mg/kg/day via oral gavage (FIG. 13A)) was “no effect” and the “effect on cell proliferation in the absence of testosterone” value [6] was “no effect”. For the same compound, the “cell lines in which testosterone-induced hyperproliferation is blocked” value ([7]; FIG. 11) was 10/12.

For C[C@]12CCC(=O)C[C@@H]1CC[C@@H]1[C@@H]2CC[C@]2(C)[C@@H](O)CC[C@@H]12 [dihydrotestosterone], the “ZIP9 binding specificity / affinity” value [4] is given as “relatively low affinity”.

With [Fe] [iron] the “proliferation following addition of cations” value [2] was “Only zinc promoted proliferation”.

With [Mn+2] [manganese] the “proliferation following addition of cations” value [2] was “Only zinc promoted proliferation”.

For C[C@]12CC[C@H]3[C@@H](CCC4=CC(=O)CC[C@@]43C)[C@@H]1CC[C@@H]2O [testosterone], the cellular proliferation [8] is listed as “markedly increased cellular proliferation”, the “ZIP9 binding specificity / affinity” value [4] is listed as “highly specific” and the “duration of sustained elevation in free cytosolic zinc” value ([9]; WM46, in the presence of the androgen (FIG. 4B)) is listed as “at least 2 days”. The zinc influx ([9]; WM46, over 5 minutes (FIG. 4A)) was “rapid zinc influx”, the “effect on zinc in cells lacking ZIP9” value ([9]; ΔZIP9 WM46 (FIG. 7C)) was “no significant effect” and the proliferation [10] was “promotes proliferation”. The “response of ΔZIP9 cells in vitro” value ([11]; mPDAC ΔZIP9 (FIG. 9E)) was “do not respond”, the proliferation ([11]; murine PDAC (FIG. 9C)) was “promotes proliferation” and the ERK phosphorylation ([1]; testosterone treatment (FIG. 3B)) was “increases ERK phosphorylation”. The cellular proliferation [2] was “markedly increased cellular proliferation”, the “concentration of maximum proliferative response” value [2] was 75 nM and the “proliferation of isogenic clones lacking ZIP9” value [2] was “no effect”. The cellular proliferation ([3]; mouse melanoma cells, androgen treatment (FIG. 3A)) was “markedly increased cellular proliferation”, the “proliferation of isogenic clones lacking ZIP9” value ([3]; ΔZIP9 YUMM (FIG. 7B)) was “no effect” and the “proliferative response to testosterone” value ([7]; MCF7 cells) was “did not respond”. The “proliferative response to testosterone” value ([7]; U87 cells) was “did not respond”, the 14-3-3c protein expression [12] was “downregulated” and the “CDKN2A (p16) protein expression” value [12] was “downregulated”. For the same compound, the YAP1 protein expression [12] was “Upregulated”, the “phosphorylated ERK (T202; Y204) level” value [12] was “Upregulated” and the “time to YAP movement from cytoplasm to nucleus” value [13] was 30 to 60 min.

With [Zn+2] [zinc] the “proliferation following addition of cations” value [2] was “promoted proliferation”.
